For assay [1], the target named is T1, 72 kDa type IV collagenase (Homo sapiens, UniProt P08253). Description: Inhibition of MMP-2.
Target sequence in this assay (P08253 whole entry): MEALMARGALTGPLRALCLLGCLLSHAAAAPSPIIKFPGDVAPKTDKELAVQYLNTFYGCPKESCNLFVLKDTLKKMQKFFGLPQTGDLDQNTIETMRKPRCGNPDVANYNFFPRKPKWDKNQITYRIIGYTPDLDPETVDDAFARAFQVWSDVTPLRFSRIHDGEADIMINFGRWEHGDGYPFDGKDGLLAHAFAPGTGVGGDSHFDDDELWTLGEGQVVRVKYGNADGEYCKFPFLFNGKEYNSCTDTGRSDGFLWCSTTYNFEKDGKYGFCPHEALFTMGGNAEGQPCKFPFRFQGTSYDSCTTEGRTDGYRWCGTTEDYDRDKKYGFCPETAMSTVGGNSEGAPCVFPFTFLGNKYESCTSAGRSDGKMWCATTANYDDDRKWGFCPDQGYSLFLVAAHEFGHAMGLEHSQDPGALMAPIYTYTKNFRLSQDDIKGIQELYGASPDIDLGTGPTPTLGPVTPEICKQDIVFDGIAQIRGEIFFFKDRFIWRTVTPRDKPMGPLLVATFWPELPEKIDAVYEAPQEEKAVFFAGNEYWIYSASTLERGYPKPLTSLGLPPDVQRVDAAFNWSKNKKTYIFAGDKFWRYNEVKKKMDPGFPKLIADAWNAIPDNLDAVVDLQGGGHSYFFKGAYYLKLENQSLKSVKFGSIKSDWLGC
The target in assay [2] is T2, Interstitial collagenase (Homo sapiens, UniProt P03956).
T2 sequence (P03956 whole entry): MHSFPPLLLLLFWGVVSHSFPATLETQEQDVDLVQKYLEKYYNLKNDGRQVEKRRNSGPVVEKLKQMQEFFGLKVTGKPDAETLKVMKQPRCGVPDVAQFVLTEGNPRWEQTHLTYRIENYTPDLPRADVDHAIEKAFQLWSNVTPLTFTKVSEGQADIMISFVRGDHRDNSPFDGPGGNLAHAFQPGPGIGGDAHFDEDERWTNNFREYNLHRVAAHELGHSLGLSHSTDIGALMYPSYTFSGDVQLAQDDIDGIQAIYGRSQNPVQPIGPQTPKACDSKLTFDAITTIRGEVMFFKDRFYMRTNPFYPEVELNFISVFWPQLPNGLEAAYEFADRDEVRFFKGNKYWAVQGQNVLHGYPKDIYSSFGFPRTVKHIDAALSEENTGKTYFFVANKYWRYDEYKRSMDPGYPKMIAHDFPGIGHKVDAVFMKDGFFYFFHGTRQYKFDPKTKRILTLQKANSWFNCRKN
Description: Inhibition of matrix metalloprotease -1.

Assay [3] concerns the target T3, Stromelysin-1 (Homo sapiens, UniProt P08254).
Assay [4] has as its target T1, 72 kDa type IV collagenase. As to the kind of experiment: Inhibition of matrix metalloprotease-2 at 1 uM.
Target sequence in this assay (P08253 110-660 limits assumed): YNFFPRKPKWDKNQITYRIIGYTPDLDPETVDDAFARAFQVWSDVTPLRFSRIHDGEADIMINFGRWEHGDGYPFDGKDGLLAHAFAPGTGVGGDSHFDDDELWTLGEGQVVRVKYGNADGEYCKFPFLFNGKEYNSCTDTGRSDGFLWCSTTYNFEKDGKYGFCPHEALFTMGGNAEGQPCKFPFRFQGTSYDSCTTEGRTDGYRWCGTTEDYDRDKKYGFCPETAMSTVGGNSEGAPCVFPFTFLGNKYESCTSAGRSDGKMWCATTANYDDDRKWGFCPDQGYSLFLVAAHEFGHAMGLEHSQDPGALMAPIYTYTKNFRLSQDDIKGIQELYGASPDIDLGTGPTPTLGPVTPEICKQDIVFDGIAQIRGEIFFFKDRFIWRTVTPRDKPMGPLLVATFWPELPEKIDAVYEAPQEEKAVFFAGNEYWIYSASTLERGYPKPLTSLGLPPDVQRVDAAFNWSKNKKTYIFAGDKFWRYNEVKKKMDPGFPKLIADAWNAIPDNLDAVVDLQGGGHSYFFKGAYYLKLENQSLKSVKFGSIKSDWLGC
The target of assay [5] is T4, Interstitial collagenase (Homo sapiens) (UniProt P03956).
T4 sequence (whole entry): T2 sequence (P03956 whole entry)
Description: Inhibition of matrix metalloprotease-1 at 10 uM.

The target of assay [6] is T1, 72 kDa type IV collagenase. Description: Inhibition of matrix metalloprotease-2 at 1 uM.
Target sequence in this assay (P08253 110-660 limits assumed): as above
For assay [7], the target named is T1, 72 kDa type IV collagenase. As to the kind of experiment: Inhibition of matrix metalloprotease-2.
Target sequence in this assay (P08253 whole entry): as the sequence (P08253 whole entry) above
Assay [8] concerns the target T3, Stromelysin-1. As to the kind of experiment: Inhibition of matrix metalloprotease -3.
In assay [9] the target is T2, Interstitial collagenase. As to the kind of experiment: Inhibition of matrix metalloprotease -1.

T3 sequence (P08254 whole entry): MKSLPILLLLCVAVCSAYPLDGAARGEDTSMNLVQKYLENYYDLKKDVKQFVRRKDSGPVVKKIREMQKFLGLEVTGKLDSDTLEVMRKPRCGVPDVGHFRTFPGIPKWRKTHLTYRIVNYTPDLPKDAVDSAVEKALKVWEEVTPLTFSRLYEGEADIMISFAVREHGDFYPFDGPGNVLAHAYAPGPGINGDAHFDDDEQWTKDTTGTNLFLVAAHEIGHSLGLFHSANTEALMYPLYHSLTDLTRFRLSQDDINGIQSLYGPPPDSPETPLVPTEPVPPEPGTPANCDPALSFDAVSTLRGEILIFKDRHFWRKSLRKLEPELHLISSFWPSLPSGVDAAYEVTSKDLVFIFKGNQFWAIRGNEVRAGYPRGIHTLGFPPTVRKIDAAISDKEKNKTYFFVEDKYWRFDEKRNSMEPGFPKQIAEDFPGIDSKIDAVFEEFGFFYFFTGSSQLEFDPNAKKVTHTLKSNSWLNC

One may read the Ki as a dissociation constant, usually derived from enzyme kinetics or from competition with a known ligand. For `CC(C)C[C@H](NC(=O)[C@H](CCc1ccccc1)N[C@H](CCCCCNC(=O)Cc1ccccc1)C(=O)O)C(=O)Nc1ccccc1`, the Ki in assay [1] was determined as 0.35 µM; at Interstitial collagenase [2], 5.81 µM; at Stromelysin-1 [3] it was 0.047 µM.
With `CCCC[C@@H](N[C@@H](CCc1ccccc1)C(=O)N[C@@H](CC(C)C)C(=O)Nc1ccccc1)C(=O)O`, the inhibition constant Ki in assay [1] was found to be 1.1 µM; on Interstitial collagenase [2], 6.8 µM; at Stromelysin-1 [3], 0.32 µM.
For orientation: inhibition means the drop in the measured response relative to a control, in per cent. Higher therefore signals a strong effect. Take `CC(C)C[C@H](NC(=O)[C@H](CCc1ccccc1)N[C@H](CCCCc1ccccc1)C(=O)O)C(=O)Nc1ccccc1`: the inhibition in [4] worked out at 64%. Also, the Ki on Interstitial collagenase [2] was 0.072 µM; at Stromelysin-1 [3] it was 0.12 µM.
`CC[C@@H](N[C@@H](CCc1ccccc1)C(=O)N[C@@H](CC(C)C)C(=O)Nc1ccccc1)C(=O)O`: the Ki in assay [1] was 1.1 µM; at Interstitial collagenase [2] it was 1.8 µM; on Stromelysin-1 [3] it was 0.35 µM.
For the compound `CC(C)C[C@H](NC(=O)[C@H](CCc1ccccc1)N[C@H](CCCNC(=O)Cc1ccccc1)C(=O)O)C(=O)Nc1ccccc1`, the Ki in assay [1] came to 0.06 µM; at Interstitial collagenase [2], 0.87 µM; at Stromelysin-1 [3], 0.01 µM.
Regarding `CC(C)C[C@H](NC(=O)[C@H](CCc1ccccc1)N[C@H](CCCCN1C(=O)c2ccccc2C1=O)C(=O)O)C(=O)Nc1ccccc1`, the inhibition constant Ki in [1] is 0.086 µM; at Interstitial collagenase [2] it was 0.72 µM; on Stromelysin-1 [3], 0.008 µM.
Turning to `CC(C)C[C@H](NC(=O)[C@H](CCc1ccccc1)N[C@H](CCCNC(=O)CCCc1ccccc1)C(=O)O)C(=O)Nc1ccccc1`, the inhibition in [4] was 70%; in [5], 36%. In addition, the affinity at Stromelysin-1 [3], expressed as Ki, was 0.12 µM.
For the compound `CC(C)C[C@H](NC(=O)[C@H](CCc1ccccc1)N[C@H](CCCNC(=O)c1ccccc1)C(=O)O)C(=O)Nc1ccccc1`, the inhibition in [4] and in [5] was 50% each time. Besides, the affinity at Stromelysin-1 [3] corresponds to a Ki of 0.27 µM.
Regarding `CC(C)C[C@H](NC(=O)[C@H](CCc1ccccc1)N[C@H](CCCN1C(=O)c2ccccc2C1=O)C(=O)O)C(=O)Nc1ccccc1`, the values for the Ki (in assay [1]; at Interstitial collagenase [2]; on Stromelysin-1 [3]) were 0.57 µM, 3.4 µM and 0.14 µM, respectively.
Take `CC(C)C[C@H](NC(=O)[C@H](CCc1ccccc1)N[C@H](CCN1C(=O)c2ccccc2C1=O)C(=O)O)C(=O)Nc1ccccc1`: the Ki was found to be 0.02 µM in [1], 2.09 µM at Interstitial collagenase [2] and 0.033 µM at Stromelysin-1 [3].
`CC(C)C[C@H](NC(=O)[C@H](CCc1ccccc1)N[C@H](CCCCN1Cc2ccccc2C1=O)C(=O)O)C(=O)Nc1ccccc1`: the Ki in assay [1] amounted to 0.11 µM; at Interstitial collagenase [2], 1.6 µM; at Stromelysin-1 [3] it was 0.012 µM.
The compound `CC(C)C[C@H](NC(=O)[C@H](CCc1ccccc1)N[C@H](CCCCNC(=O)CCc1ccccc1)C(=O)O)C(=O)Nc1ccccc1` yielded an inhibition in [4] of 49%. For the same compound, the results for the Ki at Interstitial collagenase [2] and at Stromelysin-1 [3] were 13 µM and 0.19 µM, respectively.
With `CC(C)C[C@H](NC(=O)[C@H](CCc1ccccc1)N[C@H](CCCCNC(=O)c1ccccc1)C(=O)O)C(=O)Nc1ccccc1`, the Ki worked out at 0.12 µM in [1], 5.8 µM on Interstitial collagenase [2] and 0.032 µM on Stromelysin-1 [3].
For `CC(C)C[C@H](NC(=O)[C@H](CCc1ccccc1)N[C@H](CCNC(=O)c1ccccc1)C(=O)O)C(=O)Nc1ccccc1`, in assay [6], the inhibition came to 72%. Further, the Ki at Interstitial collagenase [2] worked out at 1.09 µM; on Stromelysin-1 [3] it was 0.12 µM.
Regarding `CNC(=O)[C@H](Cc1ccccc1)NC(=O)[C@H](CC(C)C)N[C@H](CCN1C(=O)c2cc3ccccc3cc2C1=O)C(=O)O`, the Ki in assay [7] came out at 0.091 µM; on Stromelysin-1 [8] it was 0.02 µM; at Interstitial collagenase [9], 0.005 µM.
Take `CC(C)C[C@H](NC(=O)[C@H](CCc1ccccc1)N[C@H](CCNC(=O)Cc1ccccc1)C(=O)O)C(=O)Nc1ccccc1`: the Ki on Interstitial collagenase [2] turned out to be 1.79 µM; on Stromelysin-1 [3], 0.13 µM.
In the case of `CC(C)C[C@H](NC(=O)[C@H](CCc1ccccc1)N[C@H](CCCCNC(=O)Cc1ccccc1)C(=O)O)C(=O)Nc1ccccc1`, the figures for the Ki (in [1]; at Interstitial collagenase [2]; on Stromelysin-1 [3]) were 0.07 µM, 7.2 µM and 0.028 µM, respectively.
Consider `CC(C)C[C@H](NC(=O)[C@H](CCc1ccccc1)N[C@H](CCCNC(=O)CCc1ccccc1)C(=O)O)C(=O)Nc1ccccc1`, for which the inhibition in assay [4] was 87%. The inhibitory constant (Ki) on Interstitial collagenase [2] turned out to be 2.2 µM; on Stromelysin-1 [3], 0.0095 µM.
`CC(=O)N1CCCC1C(=O)NCCCC[C@@H](N[C@@H](CCc1ccccc1)C(=O)N[C@@H](CC(C)C)C(=O)Nc1ccccc1)C(=O)O` (stereo partly drawn): the inhibition in assay [4] was 91%. The Ki at Interstitial collagenase [2] was 1.1 µM; at Stromelysin-1 [3], 0.18 µM.
For `CC(C)C[C@H](NC(=O)[C@H](CCc1ccccc1)N[C@H](CCCCCNC(=O)c1ccccc1)C(=O)O)C(=O)Nc1ccccc1`, the Ki in [1] is 0.12 µM; on Interstitial collagenase [2] it was 3.89 µM; on Stromelysin-1 [3], 0.02 µM.
Regarding `CC(C)C[C@H](NC(=O)[C@H](CCc1ccccc1)N[C@H](CCNC(=O)CCc1ccccc1)C(=O)O)C(=O)Nc1ccccc1`, the inhibition in [4] was 41%. The Ki turned out to be 3.33 µM at Interstitial collagenase [2] and 0.11 µM at Stromelysin-1 [3].
For the compound `CCCCCC[C@@H](N[C@@H](CCc1ccccc1)C(=O)N[C@@H](CC(C)C)C(=O)Nc1ccccc1)C(=O)O`, the inhibitory constant (Ki) in assay [1] stood at 2.3 µM; at Stromelysin-1 [3], 0.53 µM. In assay [5], this compound displayed an inhibition of 43%.
With `CC(C)C[C@H](NC(=O)[C@H](CCc1ccccc1)N[C@H](CCNC(=O)CCCc1ccccc1)C(=O)O)C(=O)Nc1ccccc1`, the Ki was 0.77 µM in assay [1], 4.41 µM on Interstitial collagenase [2] and 0.27 µM at Stromelysin-1 [3].
